Consider 22 compounds from patent US20240208909A1, “SUBSTITUTED QUINOLINE DERIVATIVES HAVING SOS1 INHIBITION ACTIVITIES AND USES THEREOF” (Accutar Biotechnology Inc., priority 2022, published 2024).

pIC50: −log10 of the molar value.

The test system of assay [1] is Phospho-ERK1/2 in DLD1 cells. The experiment in a line: Phospho-ERK1/2 expression inhibition in DLD1 cells. In kind it is cell-based. The note with it: Homo sapiens, DLD-1, 4 hours, read-out: DLD1 pERK IC50. In short, it runs like this:
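DLD1 cells (15,000/well) were plated overnight, then exposed to compounds for 4 h at 37 °C. Cells were formaldehyde-fixed and methanol-permeabilized. Phospho-ERK1/2 was detected in-cell with rabbit anti-phospho-ERK1/2 and an IRDye 800CW secondary antibody, imaged on a LI-COR Odyssey.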

The subject of a further assay is K562 cells. The experiment in a line: Cell growth inhibition of K562 cells (CellTiter-Glo). In kind it is cell-based. Particulars: Homo sapiens, 120 h, 5 days. On the technique in general: In ATP-based viability assays light output follows the ATP content of the culture.
A further assay concerns the target SOS1/KRAS-G12D (Homo sapiens (Human), UniProt Q07889). Description: SOS1/KRAS-G12D binding inhibition assay (AlphaScreen). Particulars: GST-SOS1 and 6*His KRAS-G12D, read-out: KrasG12D/SOS1 binding IC50. The method in brief: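 GST-SOS1 (5 nM) pre-incubated 30 min with His6-KRAS-G12D (50 nM) in HEPES pH 7.4, NaCl, DTT, MgCl2, Tween-20, BSA; compound in 2% DMSO then added for 30 min at 4° C. GSH donor and Ni-NTA acceptor AlphaScreen beads, 2 h at 4° C; background-corrected % inhibition versus DMSO, IC50 by variable-slope nonlinear regression.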
(Bead proximity is the source of the signal in Alpha formats.)

Chain of SOS1/KRAS-G12D (Q07889 564-1049 limits assumed): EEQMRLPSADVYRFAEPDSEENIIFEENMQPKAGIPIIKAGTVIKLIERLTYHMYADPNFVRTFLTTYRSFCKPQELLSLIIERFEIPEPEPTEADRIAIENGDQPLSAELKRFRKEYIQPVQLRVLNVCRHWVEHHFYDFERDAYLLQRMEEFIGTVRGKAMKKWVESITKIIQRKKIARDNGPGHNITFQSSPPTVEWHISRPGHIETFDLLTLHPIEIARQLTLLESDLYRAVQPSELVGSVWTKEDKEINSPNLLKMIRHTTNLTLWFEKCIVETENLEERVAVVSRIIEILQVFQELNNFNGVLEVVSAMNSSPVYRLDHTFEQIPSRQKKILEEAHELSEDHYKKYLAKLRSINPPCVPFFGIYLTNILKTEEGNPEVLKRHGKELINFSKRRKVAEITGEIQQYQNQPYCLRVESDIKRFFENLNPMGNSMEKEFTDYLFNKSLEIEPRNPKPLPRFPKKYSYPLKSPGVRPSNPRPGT

Regarding `COC1(c2ccc3nccc(N[C@H](C)c4cccc(C(F)(F)F)c4C)c3c2)CCN(C(=O)CF)CC1` [Compound 78, (R)-2-fluoro-1-(4-methoxy-4-(4-((1-(2-methyl-3-(trifluoromethyl)phenyl)ethyl)amino)quinolin-6-yl)piperidin-1-yl)ethan-1-one], the figures for the pIC50 (in assay [1]; on SOS1/KRAS-G12D) were 6.30 to 6.82 and no less than 8.00, respectively. This compound gave a 50% growth inhibitory concentration (GI50) in the assay on K562 cells of no more than 0.1 µM.

For `COC1(c2ccc3nccc(N[C@H](C)c4cccc(C(F)(F)F)c4C)c3c2)CCN(C(C)=O)CC1` [Compound 79, (R)-1-(4-methoxy-4-(4-((1-(2-methyl-3-(trifluoromethyl)phenyl)ethyl)amino)quinolin-6-yl)piperidin-1-yl)ethan-1-one], the pIC50 is 6.30 to 6.82 in assay [1] and 7.00 to 8.00 on SOS1/KRAS-G12D. In the assay with K562 cells, this compound had a GI50 of 0.1 to 0.5 µM.

For `COC1(c2ccc3nccc(N[C@H](C)c4cccc(C(F)(F)F)c4C)c3c2)CCN(C(=O)C(C)C)CC1` [Compound 80, (R)-1-(4-methoxy-4-(4-((1-(2-methyl-3-(trifluoromethyl)phenyl)ethyl)amino)quinolin-6-yl)piperidin-1-yl)-2-methylpropan-1-one], the results for the pIC50 (in assay [1]; at SOS1/KRAS-G12D) were less than 6.30 and 7.00 to 8.00, respectively. In the assay on K562 cells, the GI50 was 0.1 to 0.5 µM.

In the case of `CC(C)C(=O)N1CCC(F)(c2ccc3nccc(N[C@H](C)c4cccc(C(F)F)c4F)c3c2)CC1` [Compound 81, (R)-1-(4-(4-((1-(3-(difluoromethyl)-2-fluorophenyl)ethyl)amino)quinolin-6-yl)-4-fluoropiperidin-1-yl)-2-methylpropan-1-one], the figures for the pIC50 (in assay [1]; on SOS1/KRAS-G12D) were no less than 6.82 and no less than 8.00, respectively. The compound further came in with a GI50 in the assay on K562 cells of no more than 0.1 µM.

With `Cc1c([C@@H](C)Nc2ccnc3ccc(C4(F)CCN(C(=O)C(C)C)CC4)cc23)cccc1C(F)(F)F` [Compound 82, (R)-1-(4-fluoro-4-(4-((1-(2-methyl-3-(trifluoromethyl)phenyl)ethyl)amino)quinolin-6-yl)piperidin-1-yl)-2-methylpropan-1-one], the pIC50 in assay [1] is less than 6.30; at SOS1/KRAS-G12D, less than 7.00. The compound also yielded a GI50 with K562 cells of 0.1 to 0.5 µM.

As to `CC(=O)N1CCC(O)(c2ccc3nccc(N[C@H](C)c4cccc(C(F)F)c4F)c3c2)C1` (stereo partly drawn) [Compound 83, 1-(3-(4-(((R)-1-(3-(difluoromethyl)-2-fluorophenyl)ethyl)amino)quinolin-6-yl)-3-hydroxypyrrolidin-1-yl)ethan-1-one], the values for the pIC50 (in assay [1]; at SOS1/KRAS-G12D) were 6.30 to 6.82 and no less than 8.00, respectively. This compound yielded a GI50 in the assay with K562 cells of no more than 0.1 µM.

In the case of `CC(=O)N1CCC(F)(c2ccc3nccc(NC(C)c4cccc(C(F)F)c4F)c3c2)CC1` (stereo not drawn) [Compound 84, 1-(4-(4-((1-(3-(difluoromethyl)-2-fluorophenyl)ethyl)amino)quinolin-6-yl)-4-fluoropiperidin-1-yl)ethan-1-one], the results for the pIC50 (in assay [1]; on SOS1/KRAS-G12D) were 6.30 to 6.82 and no less than 8.00, respectively. This compound showed a GI50 in the assay with K562 cells of no more than 0.1 µM.

Turning to `CC(=O)N1CC[C@](F)(c2ccc3nccc(N[C@H](C)c4cccc(C(F)F)c4F)c3c2)C1` [Compound 85, 1-((S)-3-(4-(((R)-1-(3-(difluoromethyl)-2-fluorophenyl)ethyl)amino)quinolin-6-yl)-3-fluoropyrrolidin-1-yl)ethan-1-one], the pIC50 in assay [1] was less than 6.30; at SOS1/KRAS-G12D, no less than 8.00. This compound returned a GI50 in the assay with K562 cells of 0.1 to 0.5 µM.

On to `CO[C@@]1(c2ccc3nccc(N[C@H](C)c4cccc(C#N)c4C)c3c2)CCN(C(C)=O)C1` [Compound 87, 3-((R)-1-((6-((R)-1-acetyl-3-methoxypyrrolidin-3-yl)quinolin-4-yl)amino)ethyl)-2-methylbenzonitrile], for which the pIC50 in assay [1] was less than 6.30; at SOS1/KRAS-G12D, less than 7.00. The compound also returned a GI50 in the assay with K562 cells greater than 0.5 µM.

For `CO[C@]1(c2ccc3nccc(N[C@H](C)c4cccc(C#N)c4C)c3c2)CCN(C(C)=O)C1` [Compound 88, 3-((R)-1-((6-((S)-1-acetyl-3-methoxypyrrolidin-3-yl)quinolin-4-yl)amino)ethyl)-2-methylbenzonitrile], the pIC50 in assay [1] is no less than 6.82; on SOS1/KRAS-G12D, 7.00 to 8.00. Besides, in the assay with K562 cells, the GI50 was in the range of 0.1 to 0.5 µM.

As for `COC(=O)N1CC[C@](OC)(c2ccc3nccc(N[C@H](C)c4cccc(C(F)F)c4F)c3c2)C1` [Compound 89, methyl (S)-3-(4-(((R)-1-(3-(difluoromethyl)-2-fluorophenyl)ethyl)amino)quinolin-6-yl)-3-methoxypyrrolidine-1-carboxylate], the pIC50 was less than 6.30 in assay [1] and no less than 8.00 at SOS1/KRAS-G12D. Besides, the GI50 in the assay with K562 cells is no more than 0.1 µM.

`COC(=O)N1CC[C@@](OC)(c2ccc3nccc(N[C@H](C)c4cccc(C(F)F)c4F)c3c2)C1` [Compound 90, methyl (R)-3-(4-(((R)-1-(3-(difluoromethyl)-2-fluorophenyl)ethyl)amino)quinolin-6-yl)-3-methoxypyrrolidine-1-carboxylate]: the figures for the pIC50 (in assay [1]; on SOS1/KRAS-G12D) were less than 6.30 and 7.00 to 8.00, respectively. The GI50 in the assay with K562 cells is 0.1 to 0.5 µM.

Consider `CO[C@@]1(c2ccc3nccc(N[C@H](C)c4cccc(C(F)F)c4F)c3c2)CCN(C(=O)C(C)C)C1` [Compound 91, 1-((R)-3-(4-(((R)-1-(3-(difluoromethyl)-2-fluorophenyl)ethyl)amino)quinolin-6-yl)-3-methoxypyrrolidin-1-yl)-2-methylpropan-1-one], for which the pIC50 in assay [1] is less than 6.30; on SOS1/KRAS-G12D it was no less than 8.00. In the assay on K562 cells, this compound returned a GI50 of 0.1 to 0.5 µM.

As to `CO[C@]1(c2ccc3nccc(N[C@H](C)c4cccc(C(F)F)c4F)c3c2)CCN(C(=O)C(C)C)C1` [Compound 92, 1-((S)-3-(4-(((R)-1-(3-(difluoromethyl)-2-fluorophenyl)ethyl)amino)quinolin-6-yl)-3-methoxypyrrolidin-1-yl)-2-methylpropan-1-one], the pIC50 in assay [1] was no less than 6.82; at SOS1/KRAS-G12D, no less than 8.00. In addition, the GI50 in the assay on K562 cells was no more than 0.1 µM.

For `CO[C@@]1(c2ccc3nccc(N[C@H](C)c4cccc(C(F)F)c4F)c3c2)CCN(C(=O)C2CC2)C1` [Compound 95, cyclopropyl((R)-3-(4-(((R)-1-(3-(difluoromethyl)-2-fluorophenyl)ethyl)amino)quinolin-6-yl)-3-methoxypyrrolidin-1-yl)methanone], the figures for the pIC50 (in assay [1]; at SOS1/KRAS-G12D) were less than 6.30 and no less than 8.00, respectively. The compound also displayed a GI50 in the assay on K562 cells of 0.1 to 0.5 µM.

Regarding `CO[C@]1(c2ccc3nccc(N[C@H](C)c4cccc(C(F)F)c4F)c3c2)CCN(C(=O)C2CC2)C1` [Compound 96, cyclopropyl((S)-3-(4-(((R)-1-(3-(difluoromethyl)-2-fluorophenyl)ethyl)amino)quinolin-6-yl)-3-methoxypyrrolidin-1-yl)methanone], the pIC50 in assay [1] was 6.30 to 6.82; on SOS1/KRAS-G12D, no less than 8.00. In addition, the GI50 in the assay with K562 cells was no more than 0.1 µM.

As to `CC(=O)N1CC=C(c2ccc3nccc(N[C@H](C)c4cccc(C(F)F)c4F)c3c2)C1` [Compound 97, (R)-1-(3-(4-((1-(3-(difluoromethyl)-2-fluorophenyl)ethyl)amino)quinolin-6-yl)-2,5-dihydro-1H-pyrrol-1-yl)ethan-1-one], the pIC50 in assay [1] was less than 6.30; at SOS1/KRAS-G12D it was 7.00 to 8.00. This compound also registered a GI50 in the assay on K562 cells of 0.1 to 0.5 µM.

On to `CO[C@]1(c2ccc3nccc(N[C@H](C)c4cccc(C(F)F)c4F)c3c2)CCN(C(=O)N(C)C)C1` [Compound 98, (S)-3-(4-(((R)-1-(3-(difluoromethyl)-2-fluorophenyl)ethyl)amino)quinolin-6-yl)-3-methoxy-N,N-dimethylpyrrolidine-1-carboxamide], for which the pIC50 is less than 6.30 in assay [1] and no less than 8.00 on SOS1/KRAS-G12D. In addition, in the assay on K562 cells, the GI50 lay in the range of 0.1 to 0.5 µM.

Regarding `CO[C@@]1(c2ccc3nccc(N[C@H](C)c4cccc(C(F)F)c4F)c3c2)CCN(C(=O)N(C)C)C1` [Compound 99, (R)-3-(4-(((R)-1-(3-(difluoromethyl)-2-fluorophenyl)ethyl)amino)quinolin-6-yl)-3-methoxy-N,N-dimethylpyrrolidine-1-carboxamide], the pIC50 is 6.30 to 6.82 in assay [1] and no less than 8.00 at SOS1/KRAS-G12D. For the same compound, the GI50 in the assay with K562 cells was no more than 0.1 µM.

For `COC(=O)N1CCC(OC)(c2ccc3nccc(N[C@H](C)c4cccc(C(F)F)c4F)c3c2)CC1` [Compound 100, methyl (R)-4-(4-((1-(3-(difluoromethyl)-2-fluorophenyl)ethyl)amino)quinolin-6-yl)-4-methoxypiperidine-1-carboxylate], the pIC50 in assay [1] is 6.30 to 6.82; at SOS1/KRAS-G12D, no less than 8.00. The compound also came in with a GI50 in the assay with K562 cells of 0.1 to 0.5 µM.

Consider `CNC(=O)N1CC[C@@](OC)(c2ccc3nccc(N[C@H](C)c4cccc(C(F)F)c4F)c3c2)C1` [Compound 101, (R)-3-(4-(((R)-1-(3-(difluoromethyl)-2-fluorophenyl)ethyl)amino)quinolin-6-yl)-3-methoxy-N-methylpyrrolidine-1-carboxamide], for which the figures for the pIC50 (in assay [1]; at SOS1/KRAS-G12D) were less than 6.30 and no less than 8.00, respectively. For the same compound, the GI50 with K562 cells lay within 0.1 to 0.5 µM.

Consider `CNC(=O)N1CC[C@](OC)(c2ccc3nccc(N[C@H](C)c4cccc(C(F)F)c4F)c3c2)C1` [Compound 102, (S)-3-(4-(((R)-1-(3-(difluoromethyl)-2-fluorophenyl)ethyl)amino)quinolin-6-yl)-3-methoxy-N-methylpyrrolidine-1-carboxamide], for which the results for the pIC50 (in assay [1]; on SOS1/KRAS-G12D) were no less than 6.82 and no less than 8.00, respectively. The GI50 with K562 cells is no more than 0.1 µM.

By GI50 is commonly meant the concentration at which growth is held to half of that of the control. Low readings indicate greater sensitivity of the cells, high ones lower sensitivity of the cells.
